Measured values from article PMC6930659, “Antiprotozoal Activity of Turkish Origanum onites Essential Oil and Its Components” (Molecules, 2019).
Values after ≈ are worked out from the molar mass of the structure shown. “Also recorded” adds a separate entry of the source. Where two headings read alike, the source gives them in different places.

Tests used:
T. brucei brucei STIB795 = assay: In vivo trypanocidal activity, T. brucei brucei STIB795 mouse model; parameters: species or system Trypanosoma brucei brucei; details: for in vivo trypanocidal activity in mice (in words): 100 mg/kg i.p.; for Cured/Infected / Mean Survival: 100 mg/kg × 4 days i.p., NMRI mice; for Mean Survival: untreated control 5.25 days
Experimental: In vivo efficacy studies in mice were conducted at the Swiss Tropical and Public Health Institute (Basel) (License number 2813) according to the rules and regulations for the protection of animal rights (“Tierschutzverordnung”) of the Swiss “Bundesamt für Veterinärwesen”. They were approved by the veterinary office of Canton Basel-Stadt, Switzerland. Groups of four female NMRI mice weighing 20 to 25 g were infected i.p. on Day 0 (d0) with 10^5 bloodstream forms of T. brucei brucei STIB 795, which is a derivative of strain 427. Compounds were formulated in 100% DMSO diluted 10-fold in distilled water. Mice were treated on four consecutive days (d3 to d6 post-infection) with the Origanum onites oil, as well as carvacrol and thymol, at 100 mg/kg by the i.p. route. One group served as untreated controls, and two other groups were treated with the standard drugs pentamidine (5 mg/kg for 4 days) and melarsoprol (2 mg/kg for 4 days), respectively. The levels of parasitemia of the mice were checked by microscopic examination of tail blood on Day 7 and thereafter twice a week until Day 30 post infection. Mice were considered cured when there was no parasitaemia relapse detected in the tail blood over the 30 day observation period. The day of relapse and surviving days were recorded.

P. falciparum K1 strain = assay: In vitro assay for Plasmodium falciparum ([3H]-hypoxanthine incorporation); type: cell-based
Experimental: Activity against the erythrocytic stages of P. falciparum was determined using an in vitro modified [^3H]-hypoxanthine incorporation assay, using the chloroquine- and pyrimethamine-resistant K1 strain [68]. Compounds were dissolved in DMSO at 10 mg/mL and further diluted in medium before added to parasite cultures incubated in RPMI 1640 medium without hypoxanthine, supplemented with HEPES (5.94 g/l), NaHCO3 (2.1 g/L), neomycin (100 U/mL), AlbumaxR (5 g/L), and washed human red cells A+ at 2.5% haematocrit (0.3% parasitaemia). Serial drug dilutions of seven 3-fold dilution steps covering a range from 90 to 0.123 μg/mL were prepared. The 96 well plates were incubated in a humidified atmosphere at 37 °C; 4% CO2, 3% O2, 93% N2. After 48 h 50 μL of ^3H-hypoxanthine (=0.5 μCi) was added to each well of the plate. The plates were incubated for a further 24 h under the same conditions. The plates were then harvested with a Betaplate™ cell harvester (Wallac, Zurich, Switzerland), and the red blood cells transferred onto a glass fiber filter then washed with distilled water. The dried filters were inserted into a plastic foil with 10 mL of scintillation fluid, and counted in a Betaplate™ liquid scintillation counter (Wallac, Zurich, Switzerland). […] IC50 values were calculated from the sigmoidal inhibition curves using Microsoft Excel. Chloroquine was used as positive control drug.

[1] = test system: L. infantum promastigotes; parameters: method as in PMID 31151304; details: 24 h MTT assay; cited from earlier work
[2] = test system: promastigote forms of L. chagasi; parameters: method as in PMID 23558998, PMID 23850505; details: cited from earlier work
[3] = test system: P. falciparium FCR-3 strain; parameters: method as in PMID 23082579; details: cited from earlier work
[4] = test system: L. donovani (strain MHOM/ET/67/L82) amastigotes; assay: In vitro assay for Leishmania donovani axenic amastigotes (resazurin); type: cell-based; details: 72 h, read-out: IC50 Leishmania donovani
Experimental: Amastigotes of L. donovani (strain MHOM/ET/67/L82) were grown in axenic culture at 37 °C in SM medium at pH 5.4 supplemented with 10% heat-inactivated FBS under an atmosphere of 5% CO2. Culture medium (100 μL) with 10^5 amastigotes from axenic culture with or without a serial drug dilution was seeded in 96 well microtiter plates. Serial drug was prepared covering a range of dilutions from 90 to 0.123 μg/mL. After 72 h of incubation, the plates were inspected under an inverted microscope to assure growth of the controls and sterile conditions. Subsequently, 10 μL resazurin solution (12.5 mg resazurin dissolved in 100 mL double-distilled water) was added to each well and the plates were incubated for another 2 h. The plates were then read with a Spectramax Gemini XS microplate fluorometer (Molecular Devices Cooperation, Sunnyvale, CA, USA) using an excitation wavelength of 536 nm and an emission wavelength of 588 nm. Data were analyzed using the software Softmax Pro (Molecular Devices Cooperation, Sunnyvale, CA, USA). A decrease of fluorescence (=inhibition) was expressed as percentage of the fluorescence of control cultures and plotted against the drug concentrations. From the sigmoidal inhibition curves, the IC50 values were calculated. Miltefosine was used as a reference drug.

[5] = test system: T. cruzi Tulahuen strain C2C4; assay: In vitro assay for Trypanosoma cruzi in L-6 cells (β-galactosidase/CPRG); type: cell-based; details: highest concentration tested 90 μg/mL; for IC50: Trypanosoma cruzi, L6, Tulahuen C2C4 in L-6 cells, 96 h, means of two determinations ± deviation
Experimental: Rat skeletal myoblasts (L-6 cells) were seeded in 96 well microtiter plates (2000 cells/well) in 100 μL RPMI 1640 medium with 10% FBS and 2 mM L-glutamine for 24 h. After that, the medium was removed and replaced by 100 μL per well containing 5000 trypomastigote forms of T. cruzi Tulahuen strain C2C4, containing the β-galactosidase (Lac Z) gene. The medium was removed from the wells after 48 h, and replaced with 100 μL fresh medium with or without a serial drug dilution of seven 3-fold dilution steps covering a range from 90 to 0.123 μg/mL. After 96 h of incubation, the plates were inspected under an inverted microscope to assure growth of the controls and sterility, after which the substrate CPRG/Nonidet ([…]) was added to all wells. A color reaction developed within 2–6 h and could be read photometrically at 540 nm. Data were transferred into the graphic program Softmax Pro (Molecular Devices Cooperation, Sunnyvale, CA, USA) and the IC50 values were calculated from the sigmoidal dose response curves. Benznidazole was the reference drug.

## Cc1ccc(C(C)C)c(O)c1 [Thymol]
T. brucei brucei STIB795
  in vivo trypanocidal activity in mice (in words): extended the survival time of infected mice; also recorded: had some effect
  Cured/Infected: 0/4
  Mean Survival: 9.0 days
T. brucei brucei STIB795; listed as thymol
  Mean Survival: 9 days
P. falciparum K1 strain; K1 strain (chloroquine- and pyrimethamine-resistant), erythrocytic stages, means of two determinations ± deviation, read-out: IC50 Plasmodium falciparum
  IC50: 5.7 ± 0.03 µg/mL (≈ 37.9 µM)
[1]
  IC50 L. infantum promastigotes: 7.2 µg/mL (≈ 47.9 µM)
[2]
  IC50 promastigote forms of L. chagasi: 9.8 µg/mL
[3]
  IC50 in vitro antimalarial activity: 10 µg/mL (≈ 66.6 µM)
[4]; axenic amastigotes, means of two determinations ± deviation
  IC50: 17.3 ± 4.1 µg/mL (≈ 115 µM)
[5]
  IC50: > 90 µg/mL
  inhibitory activity against T. cruzi (in words): inactive

## Cc1ccc(C(C)C)cc1O [Carvacrol]
T. brucei brucei STIB795
  in vivo trypanocidal activity in mice (in words): inactive
  Cured/Infected: 0/4
  Mean Survival: 5.25 days
P. falciparum K1 strain; K1, read-out: IC50 Plasmodium falciparum
  IC50: 6.4 ± 0.9 µg/mL (≈ 42.6 µM)
[1]
  IC50 L. infantum promastigotes: 9.8 µg/mL (≈ 65.2 µM)
[2]
  IC50 promastigote forms of L. chagasi: 2.3 µg/mL
[3]
  IC50 in vitro antimalarial activity: 10 µg/mL (≈ 66.6 µM)
[4]
  IC50: 13.1 ± 3.9 µg/mL (≈ 87.2 µM)
[5]
  IC50: > 90 µg/mL
  inhibitory activity against T. cruzi (in words): inactive
